Experimental data taken from patent publication US20230088286A1, “USP7 INHIBITOR FOR USE IN THE TREATMENT OF CANCER” (ALMAC DISCOVERY LIMITED, priority 2020, published 2023).

Experiments:
PPB Fu (r) = assay type: in vitro ADME; conditions: rat, plasma
1A2 = 1A2 (Homo sapiens, UniProt P05177); experiment: Cyp inhibition 1A2; assay type: in vitro ADME; conditions: read-out: Cyps: 1A2
hERG = hERG (Homo sapiens, UniProt Q12809); experiment: hERG
PPB Fu (h) = assay type: in vitro ADME; conditions: human, plasma
[1] = test system: CT-26 tumour cells in BALB/c mouse; experiment: CT-26 syngeneic tumour model with immune checkpoint inhibitors (ADC-159 study); assay type: in vivo
Protocol: FIG. 38: Effect of USP7 inhibition in combination with immune checkpoint inhibitors […] on the tumour microenvironment in vivo. […] Tumour volume of CT-26 xenograft implanted in immuno-competent syngeneic mice treated with vehicle control, ADC-159, anti-PD-L1, anti-CTLA-4 or in combination was measured twice weekly until day 13 post tumour implantation.
FIG. 39: USP7 inhibition leads to increase survival when combined with anti-PD-L1 and anti-CTLA-4 immune checkpoint inhibitors. […] (B) Individual growth curves show improved anti-tumour response when USP7 inhibitor ADC-159 is combined with ICIs. n=10 animals/group.
For the immune checkpoint inhibitor in vivo experiments, BALB/c mouse was injected subcutaneously in the right rear flank with 5×10^5 viable CT-26 tumour cells in 0.1 mL of PBS. ADC-159 (75 mg/kg and 100 mg/kg) was dosed daily while anti-PD-L1 or anti-CTLA4 (10 mg/kg) were dosed every 3 days. Tumour volume (mm^3) was measured with callipers three times a week using the equation: Tumour Volume (TV)=0.5((W)^2×L), where W is the shortest tumour diameter (width) and L is the longest perpendicular diameter (length), in millimetres. Body weights were measured on the same days during the dosing phase. […] Graphing and statistical analysis of tumour volume using one-way ANOVA followed by Dunnett's multiple comparisons test. […]

CT-26 tumours = experiment: Flow cytometry of tumour infiltrating immune cells, CT-26 model (ADC-159); assay type: in vivo, mouse; conditions: ADC-159 alone or in combination with ICIs, 13 days
Protocol: FIG. 40: USP7 inhibitor ADC-159 modulates the tumour microenvironment immune compartment in vivo.
Harvested tumours were collected in HBSS medium, minced and incubated 30 minutes at 37° C. in non-enzymatic cell dissociation buffer followed by mechanical dissociation through a 70 μm filter. Viable cells were then enriched using Ficoll® gradient. All cells suspensions were count and one million viable cells were seeded in 96-well plates in 100 μL of Staining Buffer for acquisition. Non-specific binding was performed using mouse FcR blocking reagent. Viobility 405/452 Fixable Dye (Miltenyi Biotec) was used to assess cell viability. The antibodies directed against the CD45, CD335 (Nkp46), FoxP3 CD8a, CD4, CD3e, CD19, F4/80, CD11c, CD11 b (Miltenyi Biotec), Ly6G and Ly6C (Biolegend) were added. The stained cells were analyzed with a Fortessa X20 cytometer (BD Biosciences).

Ub-MDM2 = Ub-MDM2 MSD (HCT116); assay type: cell-based; conditions: Homo sapiens, HCT-116
TSol = assay type: physicochemical
HUVEC = experiment: Matrigel tube formation assay; assay type: cell-based, human; conditions: 6 hours
Protocol: FIG. 28: USP7 inhibition has no direct effect on HUVEC tube formation in vitro. […] The tube formation images were taken after 6 h after tube initiation.
Each well of a pre-chilled 96-well plate was coated with 50 μL of unpolymerized growth factor reduced Matrigel® (9.2 mg/mL) and incubated at 37° C. in 5% CO2 for 2 h. HUVECs were harvested with trypsin, and 1.5×10^4 cells were resuspended in 100 μL complete endothelial cell growth medium. […] After approximately 6 hours of incubation at 37° C. in 5% CO2, images of the center of each were taken at 4× magnification.

[2] = test system: primary fibroblasts, cancer cells, immortalized fibroblasts; experiment: intracellular VEGF ELISA in cell lysates; assay type: cell-based, human; conditions: 48 h
Protocol: For the co-culture experiments, 5×10^4 cancer cells were seeded in transwell in 0.5 mL complete growth medium and placed on the top of 0.1×10^6 fibroblasts plated in 12-well in 1 mL low serum growth media overnight. Following day cancer cells were washed with PBS and media replaced with reduced (1%) serum growth media. 0.5×10^6 PBMC were plated on top of fibroblasts, incubated for 45 min and activated with CD3 (1 μg/ml final concentration) and CD28 (5 μg/ml final concentration). […] Monoculture experiments, 0.1×10^6 cells were seeded in 12-well in 1 mL of complete growth media (cancer cells) or low serum growth media (fibroblasts) and incubated overnight. […] Afterwards, cell culture media was collected, cell debris were removed by centrifugation the concentration of VEGF in the cell culture supernatants was measured using the human/mouse VEGF immunoassay Quantikine ELISA kit (R&D systems, Minneapolis, Minn., USA) according to the manufacturer's instructions. For the intracellular VEGF detection, total protein concentration was determined by BCA (Pierce Chemical, USA) and VEGF levels determined using the same kit described above.

VEGFA mRNA = experiment: RNA-seq of hypoxia activated HDF, VEGFA mRNA; assay type: cell-based, human
Protocol: Afterwards RNA was extracted and analysed by RNA-seq. […] To evaluate which signalling pathways are induced in hypoxia activated fibroblasts, a comparative pathway analysis was performed on of samples coming from both, non-activated (normoxia) and hypoxia activated primary fibroblasts.

Sequence of hERG (Q12809 whole entry): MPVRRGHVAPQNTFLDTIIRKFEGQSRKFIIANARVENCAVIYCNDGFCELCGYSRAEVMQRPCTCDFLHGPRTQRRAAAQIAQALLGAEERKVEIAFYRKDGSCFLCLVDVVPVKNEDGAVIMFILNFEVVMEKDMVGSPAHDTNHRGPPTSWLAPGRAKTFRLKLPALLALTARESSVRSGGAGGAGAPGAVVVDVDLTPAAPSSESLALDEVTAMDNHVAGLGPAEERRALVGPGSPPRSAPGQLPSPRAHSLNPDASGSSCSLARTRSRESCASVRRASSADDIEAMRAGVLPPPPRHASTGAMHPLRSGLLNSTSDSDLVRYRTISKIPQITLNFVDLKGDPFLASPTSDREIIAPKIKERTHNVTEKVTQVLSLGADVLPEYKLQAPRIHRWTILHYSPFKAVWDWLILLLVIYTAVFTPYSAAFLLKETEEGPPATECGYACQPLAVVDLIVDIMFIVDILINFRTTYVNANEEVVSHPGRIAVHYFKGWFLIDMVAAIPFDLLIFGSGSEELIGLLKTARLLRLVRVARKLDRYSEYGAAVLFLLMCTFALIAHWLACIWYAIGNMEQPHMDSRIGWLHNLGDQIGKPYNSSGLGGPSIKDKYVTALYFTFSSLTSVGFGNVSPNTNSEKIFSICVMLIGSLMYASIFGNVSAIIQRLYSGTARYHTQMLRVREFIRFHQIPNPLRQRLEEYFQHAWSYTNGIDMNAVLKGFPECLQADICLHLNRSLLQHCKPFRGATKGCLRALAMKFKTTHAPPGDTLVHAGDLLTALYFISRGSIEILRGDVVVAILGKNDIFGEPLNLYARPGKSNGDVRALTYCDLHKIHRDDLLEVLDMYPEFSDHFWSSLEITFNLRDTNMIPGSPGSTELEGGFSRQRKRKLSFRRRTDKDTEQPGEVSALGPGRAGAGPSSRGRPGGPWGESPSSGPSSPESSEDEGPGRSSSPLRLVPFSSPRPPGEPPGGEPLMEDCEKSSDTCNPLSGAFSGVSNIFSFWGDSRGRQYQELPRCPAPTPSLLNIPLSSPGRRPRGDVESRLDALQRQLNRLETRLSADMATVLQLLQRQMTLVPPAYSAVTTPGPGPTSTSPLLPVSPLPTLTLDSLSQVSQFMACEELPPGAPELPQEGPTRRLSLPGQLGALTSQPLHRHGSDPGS
Sequence of 1A2 (P05177 whole entry): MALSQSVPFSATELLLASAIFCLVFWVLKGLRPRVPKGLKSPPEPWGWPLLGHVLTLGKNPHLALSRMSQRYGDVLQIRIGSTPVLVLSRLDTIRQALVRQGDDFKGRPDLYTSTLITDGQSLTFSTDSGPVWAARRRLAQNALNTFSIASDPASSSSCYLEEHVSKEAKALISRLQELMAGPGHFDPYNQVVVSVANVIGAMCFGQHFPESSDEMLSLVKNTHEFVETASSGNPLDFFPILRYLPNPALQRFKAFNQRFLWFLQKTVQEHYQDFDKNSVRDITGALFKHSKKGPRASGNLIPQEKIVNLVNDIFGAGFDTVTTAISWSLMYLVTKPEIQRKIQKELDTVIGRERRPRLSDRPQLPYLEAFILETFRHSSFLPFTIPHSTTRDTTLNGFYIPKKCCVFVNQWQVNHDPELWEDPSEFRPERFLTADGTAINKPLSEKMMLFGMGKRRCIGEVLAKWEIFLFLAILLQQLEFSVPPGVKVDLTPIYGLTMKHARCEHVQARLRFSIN

| SMILES | fraction unbound (PPB Fu (r)) | IC50 (1A2) [µM] | IC50 (hERG) [µM] | fraction unbound (PPB Fu (h)) | tumour growth inhibition (TGI) ([1]; Day 13) [%] | survival ([1]; Kaplan-Meier, compared to vehicle controls) | recruitment of cytotoxic lymphocytes into the tumour (CT-26 tumours) | EC50 (Ub-MDM2) [µM] | TSol (TSol) [µM] | HUVEC tube formation on Matrigel (HUVEC) | intracellular VEGF levels ([2]; cancer cells or immortalized fibroblasts) | intracellular VEGF levels ([2]; primary fibroblast lysates) | mRNA expression of anti-angiogenic short (191aa) isoform (VEGFA mRNA; hypoxia, 24 hours) | mRNA expression of pro-angiogenic long (371aa) isoform (VEGFA mRNA; hypoxia, 24 hours) | VEGF mRNA levels (VEGFA mRNA; hypoxic conditions) |
| --- | --- | --- | --- | --- | --- | --- | --- | --- | --- | --- | --- | --- | --- | --- | --- |
| CC1(C(=O)N2CCC(O)(Cn3cnc4c(cc(Cl)n4-c4ccc5c(c4)CCO5)c3=O)CC2)CC1 [ADC-159, 6-Chloro-7-(2,3-dihydrobenzofuran-5-yl)-3-((4-hydroxy-1-(1-methylcyclopropane-1-carbonyl)piperidin-4-yl)methyl)-3,7-dihydro-4H-pyrrolo[2,3-d]pyrimidin-4-One] | 0.12 | > 20 | 15.6 | 0.15 | 23 | modest but significant increase | increases recruitment | 0.093 | 500 | – | – | – | – | – | – |
| C[C@H](CC(=O)N1CCC(O)(Cn2cnc3c(-c4ccc(CN)cc4)n(C)nc3c2=O)CC1)c1ccccc1 [AD-04, (R)-3-(4-(Aminomethyl)phenyl)-6-((4-hydroxy-1-(3-phenylbutanoyl)piperidin-4-yl)methyl)-2-methyl-2H-pyrazolo[4,3-d]pyrimidin-7(6H)-one] | – | – | – | – | – | – | – | – | – | did not disrupt | not in cancer cells or immortalized fibroblasts | decreases | up-regulated | strongly down-regulated | down-regulated |
